# Results published in ChEMBL document CHEMBL3091327, “3',4'-Bis-difluoromethoxycinnamoylanthranilate (FT061): an orally-active antifibrotic agent that reduces albuminuria in a rat model of progressive diabetic nephropathy” (Bioorg Med Chem Lett, 2013).
# The source made the active and inactive calls. No cut-off for these calls is given here.
# Assays:
# [1] = Antifibrotic activity in rat renal mesangial cells assessed as inhibition of TGF-beta1-induced [3H]-proline incorporation into collagen at 10 uM treated 4 hrs before TGF-beta1 addition measured after 44 hrs by liquid scintillation counting; format: functional, cell-based
# [2] = Antifibrotic activity in rat renal mesangial cells assessed as inhibition of TGF-beta1-induced [3H]-proline incorporation into collagen at 30 uM treated 4 hrs before TGF-beta1 addition measured after 44 hrs by liquid scintillation counting; format: functional, cell-based
# [3] = Drug level in Sprague-Dawley rat urine at 5 mg/kg, iv; format: ADME, organism-based; design: dose 5 mg/kg, route intravenous; conditions: read-out: Drug uptake
# [4] = Volume of distribution at steady state in Sprague-Dawley rat at 5 mg/kg, iv; format: ADME, organism-based; design: dose 5 mg/kg, route intravenous; conditions: in vivo, read-out: Vdss
# Rattus norvegicus [5] = experiment: Hepatotoxicity in Sprague-Dawley rat assessed as effect on serum ALT level at 50 to 1000 mg/kg, po bid for 2 weeks; format: toxicity, organism-based; design: dose 50-1000 mg/kg, route oral; conditions: in vivo, 336 h
# Liver microsome = experiment: Metabolic stability in human liver microsomes at 1 uM after 60 mins by LC/MS analysis in presence of NADPH; format: ADME; conditions: 1 h
# Rattus norvegicus [6] = experiment: Hepatotoxicity in Sprague-Dawley rat assessed as effect on serum bilirubin level at 50 to 1000 mg/kg, po bid for 2 weeks; format: toxicity, organism-based; design: dose 50-1000 mg/kg, route oral; conditions: in vivo, 336 h
# Rattus norvegicus [7] = experiment: Renal toxicity in Sprague-Dawley rat assessed as effect on serum urate level at 50 to 1000 mg/kg, po bid for 2 weeks; format: organism-based; design: dose 50-1000 mg/kg, route oral; conditions: in vivo, 336 h
# [8] = Plasma clearance in Sprague-Dawley rat at 5 mg/kg, iv; format: ADME, organism-based; design: dose 5 mg/kg, route intravenous
# Rattus norvegicus [9] = experiment: (§1) Apparent half life in Sprague-Dawley rat at 20 mg/kg, po; format: ADME, organism-based; design: dose 20 mg/kg, route oral; conditions: in vivo
# Rattus norvegicus [10] = experiment: (§2) AUC (0 to infinity) in Sprague-Dawley rat at 20 mg/kg, po; format: ADME, organism-based, Plasma; design: dose 20 mg/kg, route oral, time infinity; conditions: in vivo
# Rattus norvegicus [11] = experiment: (§3) Tmax in Sprague-Dawley rat at 20 mg/kg, po; format: ADME, organism-based; design: dose 20 mg/kg, route oral; conditions: in vivo
# [12] = AUC (0 to infinity) in Sprague-Dawley rat at 5 mg/kg, iv; format: ADME, organism-based; design: time infinity, dose 5 mg/kg, route intravenous; conditions: plasma
# [13] = Drug level in Sprague-Dawley rat urine at 20 mg/kg, po; format: ADME, organism-based; design: dose 20 mg/kg, route oral; conditions: read-out: Drug uptake
# [14] = Apparent half life in Sprague-Dawley rat at 5 mg/kg, iv; format: ADME, organism-based; design: dose 5 mg/kg, route intravenous; conditions: in vivo, read-out: t1/2(app) (converted)
# [15] = Oral bioavailability in Sprague-Dawley rat at 20 mg/kg; format: ADME, organism-based; conditions: in vivo
# Rattus norvegicus [16] = experiment: Reduction of albuminuria in (mRen-2)27 rat streptozotocin-induced diabetic nephropathy model assessed as reduction of albumin level in urine at 200 mg/kg, po qd for 8 weeks administered 8 weeks post-streptozotocin treatment by radioimmunoassay; format: functional, organism-based; design: dose 200 mg/kg
# Rattus norvegicus [17] = experiment: Renal toxicity in Sprague-Dawley rat assessed as effect on serum creatinine level at 50 to 1000 mg/kg, po bid for 2 weeks; format: organism-based; design: dose 50-1000 mg/kg, route oral; conditions: in vivo, 336 h
# Rattus norvegicus [18] = experiment: (§4) Cmax in Sprague-Dawley rat at 20 mg/kg, po; format: ADME, organism-based; design: dose 20 mg/kg, route oral; conditions: in vivo
# Rattus norvegicus [19] = experiment: Reduction of albuminuria in (mRen-2)27 rat streptozotocin-induced diabetic nephropathy model assessed as reduction of albumin level in urine at 400 mg/kg, po qd for 8 weeks administered 8 weeks post-streptozotocin treatment by radioimmunoassay; format: functional, organism-based; design: dose 400 mg/kg
# [20] = as §1; format: ADME, organism-based; design: dose 20 mg/kg, route oral; conditions: Sprague-Dawley, in vivo
# [21] = as §2; format: ADME, organism-based, Plasma; design: dose 20 mg/kg, route oral, time infinity; conditions: Sprague-Dawley, plasma
# [22] = as §3; format: ADME, organism-based; design: dose 20 mg/kg, route oral; conditions: Sprague-Dawley, in vivo
# [23] = as §4; format: ADME, organism-based; design: dose 20 mg/kg, route oral; conditions: Sprague-Dawley, in vivo
smiles,measurement,setting,value
COc1cc(/C=C/C(=O)Nc2ccccc2C(=O)O)cc(OC)c1OC(F)F,inhibition,[1],24%
same,inhibition,[2],80%
O=C(/C=C/c1ccc2c(c1)OC(F)(F)O2)Nc1ccccc1C(=O)O,inhibition,[2],0%
COc1cc(/C=C/C(=O)Nc2ccccc2C(=O)O)ccc1OC(F)F,inhibition,[1],20%
same,inhibition,[2],70%
O=C(/C=C/c1ccc(OC(F)(F)F)c(F)c1)Nc1ccccc1C(=O)O,inhibition,[1],55%
O=C(/C=C/c1ccc(OC(F)F)c(OC(F)F)c1)Nc1ccccc1C(=O)O,dose excreted,[3],3.3%
same,Vd,[4],0.1 L/kg
same,Activity,Rattus norvegicus [5],Non-toxic
same,Stability,Liver microsome,Stable
same,Activity,Rattus norvegicus [6],Non-toxic
same,Activity,Rattus norvegicus [7],Non-toxic
same,clearance,[8],0.2 mL/min/kg
same,t1/2(app),Rattus norvegicus [9],5.4 h
same,inhibition,[1],60%
same,AUC,Rattus norvegicus [10],2691 µM·h
same,Tmax,Rattus norvegicus [11],2.5 h
same,AUC(0-inf),[12],894 µM·h
same,dose excreted,[13],1.7%
same,half-life,[14],7.8 h
same,bioavailability,[15],73%
same,Activity,Rattus norvegicus [16],Active
same,inhibition,[2],100%
same,Activity,Rattus norvegicus [17],Non-toxic
same,Cmax,Rattus norvegicus [18],200 µM
O=C(/C=C/c1ccc(OC(F)F)c(OC(F)F)c1)Nc1ccc(Br)cc1C(=O)O,inhibition,[1],100%
O=S(=O)(/C=C/c1ccc(OC(F)F)c(OC(F)F)c1)Nc1ccccc1,inhibition,[1],0%
COc1ccc(/C=C/C(=O)Nc2ccccc2C(=O)O)cc1OC(F)(F)F,inhibition,[1],92%
same,inhibition,[2],100%
C#CCOc1cc(/C=C/C(=O)Nc2ccccc2C(=O)O)ccc1OC(F)F,inhibition,[1],73%
same,inhibition,[2],100%
C/C(=C\C(=O)Nc1ccccc1C(=O)O)c1ccc(OC(F)F)c(OC(F)F)c1,inhibition,[1],100%
O=C(O)c1ccccc1NC(=O)C1CC1c1ccc(OC(F)F)c(OC(F)F)c1 (centres undefined),inhibition,[1],70%
same,inhibition,[2],90%
C#CCOc1cc(/C=C/C(=O)Nc2ccccc2C(=O)O)ccc1OC,inhibition,[1],20%
same,inhibition,[2],55%
C/C(=C\c1ccc(OC(F)F)c(OC(F)F)c1)C(=O)Nc1ccccc1C(=O)O,inhibition,[1],100%
O=C(/C=C/c1ccc(OC(F)(F)C(F)F)cc1)Nc1ccccc1C(=O)O,inhibition,[1],84%
Nc1ccccc1NC(=O)/C=C/c1ccc(OC(F)F)c(OC(F)F)c1,inhibition,[1],57%
same,inhibition,[2],79%
COc1ccc(/C=C/C(=O)Nc2ccccc2C(=O)O)cc1OC [TRANILAST],dose excreted,[3],2.4%
same,Vd,[4],0.3 L/kg
same,clearance,[8],2 mL/min/kg
same,Activity,Rattus norvegicus [19],Active
same,half-life,[20],3.3 h
same,inhibition,[1],15%
same,AUC(0-inf),[21],652 µM·h
same,Tmax,[22],1.75 h
same,AUC(0-inf),[12],110 µM·h
same,dose excreted,[13],1.9%
same,half-life,[14],3.1 h
same,bioavailability,[15],125%
same,inhibition,[2],40%
same,Cmax,[23],118 µM
